Measurements published in patent publication US8846704B2, “Thiopyrimidine-based compounds and uses thereof” (YM Biosciences Austraila Pty Ltd, priority 2007, dated 2014).

Key:
BaF3 wild-type cells = assay: Cellular screening, BaF3 wild-type cells, Alamar Blue; type: cell-based; conditions: Mus musculus, 40 hr, read-out: BAF3wt IC50_nM
Method: For screening purposes, compounds were diluted in 96 well plates at a concentration of 20 μM. Plates were warmed at 37° C. for 30 minutes before the assay was performed.
The growth factor dependant myelomonocytic cell line BaF3 bearing the pTET-off plasmid (Clontech) was transfected with either pTELJAK2 or pTELJAK3, and the transfected cells were selected for growth-factor independent cell growth. The BaF3 wild-type cells were cultured in DMEM containing 10% FCS, 10% WEHI 3B conditioned medium. The BaF3 TELJAK cells ([…]) were cultured in DMEM 10% Tet-System Approved FBS (without WEHI 3B conditioned medium).
(§1) Cell suspensions were prepared by harvesting cells from culture (the cells used in this test were in late log phase growth with high viability.) Cells were diluted in the appropriate growth medium, as described above, to 1.1× final concentration (from 50,000 cell/mL to 200,000 cell/mL, depending on cell line).
(§2) Compounds to be tested were added (10 μL, 10× final concentration) to a flat bottomed 96-well plate. The cellular suspension (90 μL per well) was then added, and the plate incubated for 40 hr at 37° C., 5% CO2. Alamar Blue 10 μL per well was added and the plates returned to the incubator for a further 4-6 hours. The plates were then read at 544 nm.

human JAK1 = biological target: T1, human JAK1 (Homo sapiens, UniProt P23458); assay: Alphascreen tyrosine kinase enzyme assay, JAK1 kinase domain; type: biochemical; conditions: read-out: JAK1 IC50_nM
T1 construct: The kinase domain of human JAK1 was amplified; GST (N); made in house; host or cells: Sf9 insect cells (baculovirus)
T1 sequence (P23458 875-1153 limits assumed): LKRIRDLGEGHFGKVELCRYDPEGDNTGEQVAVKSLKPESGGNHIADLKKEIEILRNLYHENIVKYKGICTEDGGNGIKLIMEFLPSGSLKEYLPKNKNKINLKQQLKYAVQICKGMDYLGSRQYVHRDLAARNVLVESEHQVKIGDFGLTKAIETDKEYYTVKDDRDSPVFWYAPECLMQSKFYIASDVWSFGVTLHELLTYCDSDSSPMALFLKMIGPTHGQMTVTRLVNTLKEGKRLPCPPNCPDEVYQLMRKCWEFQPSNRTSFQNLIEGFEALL
Method: For screening purposes, compounds (in 100% DMSO) were warmed at 37 degrees for at least 20 minutes before use. A […] stock was initially made in assay buffer, where the final concentration of DMSO was 0.3%. The stocks were then diluted in 384 well Optiplates (Packard) where the final concentration of the compound was […].
The kinase domain of human JAK1 was amplified from U937mRNA using the polymerase chain reaction with the following primers: […]
The JAK1 PCR products were cloned into the pDest20 destination vector (Gibco). The JAK1 plasmid was then transformed into competent DH10Bac cells (Gibco), and the recombinant baculovirus was prepared via Sf9 insect cell transfection.
Baculovirus preparations from each of the constructs were infected into either one or five liters of Sf9 cells (Invitrogen) grown in SF-900 medium (Invitrogen) to a cell density of approximately 1-2×10^6 cells/ml. Cells were infected with virus at a MOI of 0.8-3.0. Cells were harvested and lysed. Tyrosine kinase domains were purified by affinity chromatography on a glutathione-agarose column (Scientifix Pty. Ltd. catalog #: GSH-200).
Kinase assays were performed in 384 well Optiplates (Packard) using an Alphascreen Protein Tyrosine Kinase PY100 detection kit The compounds were pre-incubated with affinity purified PTK domain in the presence of phosphotyrosine assay buffer (10 mM HEPES, pH 7.5, 100 mM MgCl2, 25 mM NaCl, […] and 0.1% Tween 20) for 20 minutes. The compounds were then incubated with substrate in the presence of ATP. The substrate used was susbtrate-1 with the sequence biotin-EGPWLEEEEEAYGWMDF-NH2 [SEQ. ID. NO. 13] (final concentration […]). For HCK 80 μm ATP was used and incubated for 60 minutes. Alphascreen phosphotyrosine acceptor beads followed by streptavidin donor beads at a concentration of 1/100 in stop buffer were added to each well under subdued light and incubated for 2-3 hours., The Alphascreen plates were read on a Packard Fusion Alpha instrument.

CTLL2 = assay: Cellular screening, CTLL2 cells, Alamar Blue; type: cell-based; conditions: Mus musculus, CTLL-2, read-out: CTLL2 IC50_nM
Method: as §1, §2

Which results are given for `C=CC(=O)Nc1ccc(Sc2nc(Nc3ccc(N4CCOCC4)cc3)ncc2Br)cc1` [Compound 306, N-(4-(5-bromo-2-(4-morpholinophenylao)pyrimidin-4-ylthio)phenyl)acrylamide]?
IC50 (BaF3 wild-type cells): > 20 µM; IC50 (human JAK1): > 1000 nM; IC50 (CTLL2): < 1 µM

For `C=CC(=O)Nc1ccc(Sc2nc(Nc3ccc(N4CCC(CO)CC4)cc3)ncc2Br)cc1` [Compound 253, N-(4-(5-bromo-2-(4-(4-(hydroxymethyl)piperidin-1-yl)phenylao)pyrimidin-4-ylthio)phenyl)acrylamide], which IC50 (BaF3 wild-type cells) is on record?
Its IC50 is over 20 µM.

And the IC50 (CTLL2)?
Its IC50 is under 1 µM.

With `CCOC(=O)/C=C/C(=O)Nc1ccc(Sc2nc(Nc3ccc(N4CCOCC4)cc3)ncc2C)cc1` [Compound 385, (E)-ethyl 4-(4-(5-methyl-2-(4-morpholinophenylao)pyrimidin-4-ylthio)phenylao)-4-oxobut-2-enoate] as the molecule, how does the IC50 (BaF3 wild-type cells) read?
The IC50 was over 20 µM.

And the IC50 (human JAK1)?
Its IC50 is over 1000 nM.

What about the IC50 (CTLL2) of the same molecule?
The IC50 was under 5 µM.

How did the IC50 (BaF3 wild-type cells) turn out when `Cc1cnc(Nc2ccc(N3CCOCC3)cc2)nc1Sc1ccc(N2C(=O)C=C(Br)C2=O)cc1` [Compound 382, 3-bromo-1-(4-(5-methyl-2-(4-morpholinophenylao)pyrimidin-4-ylthio)phenyl)-1H-pyrrole-2,5-dione] was run?
The IC50 was under 20 µM.

And the IC50 (human JAK1)?
Its IC50 is over 1000 nM.

What about the IC50 (CTLL2) of the same molecule?
The IC50 was under 20 µM.

Which results are given for `C=CC(=O)Nc1ccc(Sc2nc(Nc3ccc(N4CCCC(O)C4)cc3)ncc2C)cc1` (centres unmarked) [Compound 299, N-(4-(2-(4-(3-hydroxypiperidin-1-yl)phenylao)-5-methylpyrimidin-4-ylthio)phenyl)acrylamide]?
IC50 (BaF3 wild-type cells): < 20 µM; IC50 (human JAK1): > 1000 nM; IC50 (CTLL2): < 1 µM

`Cc1cnc(Nc2ccc(N3CCOCC3)cc2)nc1Sc1ccc(NC(=O)/C=C\C(=O)O)cc1` [Compound 380, (Z)-4-(4-(5-methyl-2-(4-morpholinophenylao)pyrimidin-4-ylthio)phenylao)-4-oxobut-2-enoic acid] was tested. Which IC50 (BaF3 wild-type cells) did it give?
The IC50 was over 20 µM.

And the IC50 (human JAK1)?
The IC50 was over 1000 nM.

And the IC50 (CTLL2)?
The IC50 was over 20 µM.

What does the source list for `Cc1cnc(Nc2cccc(N3CCN(C)CC3)c2)nc1Sc1ccc(N)cc1` [Compound 245, 4-(4-aophenylthio)-5-methyl-N-(3-(4-methylpiperazin-1-yl)phenyl)pyrimidin-2-ae]?
IC50 (BaF3 wild-type cells): < 1 µM; IC50 (CTLL2): < 5 µM

`OCc1ccc(Sc2ccnc(Nc3ccc(N4CCOCC4)cc3)n2)cc1` [Compound 67, (4-(2-(4-morpholinophenylao)pyrimidin-4-ylthio)phenyl)methanol] was tested. Which IC50 (BaF3 wild-type cells) did it give?
The IC50 was under 20 µM.

What about the IC50 (human JAK1) of the same molecule?
Its IC50 is under 1000 nM.

And the IC50 (CTLL2)?
The IC50 was under 20 µM.

How did the IC50 (BaF3 wild-type cells) turn out when `Cc1cnc(Nc2ccc(N3CCOCC3)cc2)nc1Sc1ccc(N)nc1` [Compound 262, 4-(6-aopyridin-3-ylthio)-5-methyl-N-(4-morpholinophenyl)pyrimidin-2-ae] was run?
Its IC50 is over 20 µM.

What about the IC50 (CTLL2) of the same molecule?
The IC50 was over 20 µM.

What does the source list for `O=C(/C=C\Cl)Nc1ccc(Sc2ccnc(Nc3ccc(N4CCOCC4)cc3)n2)cc1` [Compound 346, (Z)-3-chloro-N-(4-(2-(4-morpholinophenylao)pyrimidin-4-ylthio)phenyl)acrylamide]?
IC50 (BaF3 wild-type cells): < 1 µM; IC50 (human JAK1): > 1000 nM; IC50 (CTLL2): < 20 µM

Which results are given for `CNC(=O)/C=C\C(=O)Nc1ccc(Sc2nc(Nc3ccc(N4CCOCC4)cc3)ncc2C)cc1` [Compound 389, N1-methyl-N4-(4-(5-methyl-2-(4-morpholinophenylao)pyrimidin-4-ylthio)phenyl)maleamide]?
IC50 (BaF3 wild-type cells): < 20 µM; IC50 (human JAK1): > 1000 nM; IC50 (CTLL2): < 1 µM

With `OCc1cccc(Sc2ccnc(Nc3ccc(N4CCOCC4)cc3)n2)c1` [Compound 62, (3-(2-(4-Morpholinophenylamino)pyrimidin-4-ylthio)phenyl)methanol] as the molecule, how does the IC50 (BaF3 wild-type cells) read?
The IC50 was under 20 µM.

What about the IC50 (human JAK1) of the same molecule?
Its IC50 is over 1000 nM.

And the IC50 (CTLL2)?
The IC50 was under 20 µM.

With `Cc1cnc(Nc2cccc(O)c2)nc1Sc1ccc(NC(=O)CCl)cc1` [Compound 194, 2-chloro-N-(4-(2-(3-hydroxyphenylao)-5-methylpyrimidin-4-ylthio)phenyl)acetamide] as the molecule, how does the IC50 (BaF3 wild-type cells) read?
Its IC50 is under 5 µM.

What about the IC50 (human JAK1) of the same molecule?
The IC50 was over 1000 nM.

What about the IC50 (CTLL2) of the same molecule?
Its IC50 is under 1 µM.

`CC#CC(=O)Nc1cccc(Nc2nccc(SC)n2)c1` [Compound 8, N-(3-(4-(methylthio)pyrimidin-2-ylao)phenyl)but-2-ynamide] was tested. Which IC50 (BaF3 wild-type cells) did it give?
Its IC50 is under 20 µM.

And the IC50 (CTLL2)?
Its IC50 is under 20 µM.

How did the IC50 (BaF3 wild-type cells) turn out when `COc1ccc(Nc2ncc(C)c(Sc3ccc(N)cc3)n2)cc1OC` [Compound 240, 4-(4-aophenylthio)-N-(3,4-dimethoxyphenyl)-5-methylpyrimidin-2-ae] was run?
Its IC50 is under 1 µM.

What about the IC50 (CTLL2) of the same molecule?
The IC50 was under 5 µM.

For `C=CC(=O)Nc1ccc(Sc2nc(Nc3ccc(N4CCOCC4)cc3)ncc2C)cc1CC` [Compound 260, N-(2-ethyl-4-(5-methyl-2-(4-morpholinophenylao)pyrimidin-4-ylthio)phenyl)acrylamide], which IC50 (BaF3 wild-type cells) is on record?
Its IC50 is over 20 µM.

And the IC50 (CTLL2)?
Its IC50 is under 5 µM.

For `Nc1ccc(Sc2nc(Nc3ccc(N4CCOCC4)cc3)ncc2F)cc1` [Compound 263, 4-(4-aophenylthio)-5-fluoro-N-(4-morpholinophenyl)pyrimidin-2-ae], which IC50 (BaF3 wild-type cells) is on record?
The IC50 was under 5 µM.

What about the IC50 (CTLL2) of the same molecule?
Its IC50 is over 20 µM.

With `C=CC(=O)Nc1cccc(Nc2nccc(Sc3ccccc3)n2)c1` [Compound 16, N-(3-(4-(phenylthio)pyrimidin-2-ylamino)phenyl)acrylamide] as the molecule, how does the IC50 (BaF3 wild-type cells) read?
The IC50 was under 20 µM.

What about the IC50 (CTLL2) of the same molecule?
Its IC50 is under 5 µM.

`Nc1ccc(Sc2nc(Nc3cccc(N4CCOCC4)c3)ncc2I)cc1` [Compound 264, 4-(4-aophenylthio)-5-iodo-N-(3-morpholinophenyl)pyrimidin-2-ae] was tested. Which IC50 (BaF3 wild-type cells) did it give?
Its IC50 is under 5 µM.

What about the IC50 (CTLL2) of the same molecule?
Its IC50 is under 5 µM.

What does the source list for `C=CC(=O)Nc1ccc(Nc2nccc(SC)n2)cc1` [Compound 13, N-(4-(4-(methylthio)pyrimidin-2-ylao)phenyl)acrylamide]?
IC50 (BaF3 wild-type cells): > 20 µM; IC50 (CTLL2): > 20 µM

How did the IC50 (BaF3 wild-type cells) turn out when `C=CC(=O)Nc1ccc(Sc2nc(Nc3ccc(N4CCOCC4)nc3)ncc2C)cc1` [Compound 254, N-(4-(5-methyl-2-(6-morpholinopyridin-3-ylao)pyrimidin-4-ylthio)phenyl)acrylamide] was run?
The IC50 was under 5 µM.

What about the IC50 (CTLL2) of the same molecule?
Its IC50 is under 1 µM.

With `Cc1cnc(Nc2ccc(N3CCOCC3)cc2)nc1Sc1ccc(N)cc1Cl` [Compound 251, 4-(4-ao-2-chlorophenylthio)-5-methyl-N-(4-morpholinophenyl)pyrimidin-2-ae] as the molecule, how does the IC50 (BaF3 wild-type cells) read?
The IC50 was over 20 µM.

What about the IC50 (CTLL2) of the same molecule?
The IC50 was over 20 µM.

`Cc1cnc(Nc2ccc(N3CCN(C)CC3)cc2)nc1Sc1ccc(N)cc1` [Compound 244, 4-(4-aophenylthio)-5-methyl-N-(4-(4-methylpiperazin-1-yl)phenyl)pyrimidin-2-ae] was tested. Which IC50 (BaF3 wild-type cells) did it give?
Its IC50 is under 5 µM.

And the IC50 (CTLL2)?
Its IC50 is under 5 µM.

How did the IC50 (BaF3 wild-type cells) turn out when `C=CC(=O)Nc1ccc(Sc2nc(Nc3ccc(N4CCOCC4)cc3)ncc2C)cc1C` [Compound 259] was run?
Its IC50 is under 20 µM.

And the IC50 (CTLL2)?
Its IC50 is under 1 µM.

For `Cc1cc(Sc2nc(Nc3ccc(N4CCOCC4)cc3)ncc2C)ccc1N` [Compound 255, 4-(4-ao-3-methylphenylthio)-5-methyl-N-(4-morpholinophenyl)pyrimidin-2-ae], which IC50 (BaF3 wild-type cells) is on record?
The IC50 was under 20 µM.

And the IC50 (CTLL2)?
Its IC50 is over 20 µM.

With `C=CC(=O)Nc1ccc(Sc2nc(Nc3ccc(N4CCN(C)CC4)c(OC)c3)ncc2C)cc1` [Compound 249, N-(4-(2-(3-methoxy-4-(4-methylpiperazin-1-yl)phenylao)-5-methylpyrimidin-4-ylthio)phenyl)acrylamide] as the molecule, how does the IC50 (BaF3 wild-type cells) read?
Its IC50 is under 5 µM.

And the IC50 (CTLL2)?
Its IC50 is under 1 µM.

For `C=CC(=O)Nc1ccc(Sc2nc(Nc3ccc(C)c(Br)c3)ncc2C)cc1` [Compound 242, N-(4-(2-(3-bromo-4-methylphenylao)-5-methylpyrimidin-4-ylthio)phenyl)acrylamide], which IC50 (BaF3 wild-type cells) is on record?
The IC50 was over 20 µM.

And the IC50 (CTLL2)?
The IC50 was over 20 µM.

With `C=CC(=O)Nc1ccc(Sc2ccnc(Nc3cccc(O)c3)n2)cc1` [Compound 277, N-(4-(2-(3-hydroxyphenylao)pyrimidin-4-ylthio)phenyl)acrylamide] as the molecule, how does the IC50 (BaF3 wild-type cells) read?
The IC50 was over 20 µM.

What about the IC50 (CTLL2) of the same molecule?
The IC50 was under 1 µM.

Which IC50 (BaF3 wild-type cells) does the source give for `C=CC(=O)Nc1ccc(Sc2ccnc(Nc3ccc(O)cc3)n2)cc1` [Compound 276, N-(4-(2-(4-hydroxyphenylao)pyrimidin-4-ylthio)phenyl)acrylamide] here?
Its IC50 is under 20 µM.

And the IC50 (CTLL2)?
Its IC50 is under 1 µM.
